Test results reported in patent US9730938B2, “Bruton's tyrosine kinase inhibitor combinations and uses thereof” (Pharmacyclics LLC, priority 2014, dated 2017).

How the values were obtained:
Type in all cases: cell-based
Jeko cells = experiment: 3-day CellTiter Glow combination study in Jeko cells with wild-type or mutant CARD11; conditions: FIG. 6
Method: (§1) Jeko cells, a MCL cell line, and OCI-Ly3, a DLBCL cell line, were used for this experiment.
(§2) In summary, 10,000 cells were plated into 96-well plates and treated with different concentrations of inhibitors. 3 days later, CellTiter Glow reagent was added into the wells and the luminescent signals were measured.

OCI-Ly3 cells = experiment: 3-day CellTiter Glow combination study in OCI-Ly3 cells; conditions: in combination with ibrutinib; FIG. 7
Method: as §1, §2

CARD11 / NF-κB pathway = experiment: Western blot analysis, Jeko cells containing CARD11 L225LI (mut10); conditions: FIG. 8
Method: The cell lysates were prepared from the cells which were treated with different concentrations of inhibitors for overnight incubation. Antibodies that correlate to the proteins of interest were used for detection.

TMD8 = experiment: Combined drug treatment cell viability, CellTiter-Glo assay (Example 1); conditions: 3 days
Method: (§3) DLBCL cells at either 1×10^4 cells or 2×10^4 cells were plated onto each well of a 96-W plate (Table 1).
(§4) The stock solutions for the IDH1 inhibitor AGI5198 and the MALT1 inhibitor MI-2 were each prepared at 50 mM concentration.
(§5) The 96-W plate was then incubated for 3 days. Cell viability was examined using a CellTiter-Glo assay.
(§6) A 40 μL of CellTiter-Glo reagent was added directly into each well of the 96-W plate. The plate was then shaken on a Shaker (Labsystem Wellmix) at speed 5 for 10-20 min at room temperature. Next, 100 μL of the mixed medium was transferred to a white, non-transparent, flat bottom 96-W plate for assaying. A Flexstation 3 luminometer was used for detecting and measuring the luminescent signals. Measurements were taken at room temperature.
(§7) In general, the combination is described as synergistic (CI<1), additive (CI=1), or antagonistic (CI>1). Synergism is further separated into very strong synergism (<0.1), strong synergism (0.1-0.3), synergism (0.3-0.7), moderate synergism (0.7-0.85), and slight synergism (0.85-0.9).

U2932 = experiment: as above; conditions: 3 days
Method: as §3, §4, §5, §6, §7

OCI-LY-3 = experiment: as above; conditions: 3 days
Method: as §3, §4, §5, §6, §7

SU-DHL-2 = experiment: as above; conditions: 3 days
Method: as §3, §4, §5, §6, §7

OCI-LY-10 = experiment: as above; conditions: 3 days
Method: as §3, §4, §5, §6, §7

[1] = ibrutinib 0 nM, IDH1i 10 uM / MALT1i 200 nM alone
[2] = ibrutinib 0.0256 nM, IDH1i 10 uM / MALT1i 200 nM / medium alone
[3] = ibrutinib 0.128 nM, IDH1i 10 uM / MALT1i 200 nM / medium alone
[4] = ibrutinib 0.64 nM, IDH1i 10 uM / MALT1i 200 nM / medium alone
[5] = ibrutinib 3.2 nM, IDH1i 10 uM / MALT1i 200 nM / medium alone
[6] = ibrutinib 16 nM, IDH1i 10 uM / MALT1i 200 nM / medium alone
[7] = ibrutinib 80 nM, IDH1i 10 uM / MALT1i 200 nM / medium alone
[8] = ibrutinib 400 nM, IDH1i 10 uM / MALT1i 200 nM / medium alone
[9] = ibrutinib 2000 nM, IDH1i 10 uM / MALT1i 200 nM / medium alone
[10] = ibrutinib 10000 nM, IDH1i 10 uM / MALT1i 200 nM / medium alone
[11] = ibrutinib 0 nM, IDH1i 10 uM / MALT1i 5 uM alone
[12] = ibrutinib 0.0256 nM, IDH1i 10 uM / MALT1i 5 uM / medium alone
[13] = ibrutinib 0.128 nM, IDH1i 10 uM / MALT1i 5 uM / medium alone
[14] = ibrutinib 0.64 nM, IDH1i 10 uM / MALT1i 5 uM / medium alone
[15] = ibrutinib 3.2 nM, IDH1i 10 uM / MALT1i 5 uM / medium alone
[16] = ibrutinib 16 nM, IDH1i 10 uM / MALT1i 5 uM / medium alone
[17] = ibrutinib 80 nM, IDH1i 10 uM / MALT1i 5 uM / medium alone
[18] = ibrutinib 400 nM, IDH1i 10 uM / MALT1i 5 uM / medium alone
[19] = ibrutinib 2000 nM, IDH1i 10 uM / MALT1i 5 uM / medium alone
[20] = ibrutinib 10000 nM, IDH1i 10 uM / MALT1i 5 uM / medium alone

## CC(C)C[C@H](NC(=O)[C@H](CCc1ccccc1)NC(=O)CN1CCOCC1)C(=O)N[C@@H](Cc1ccccc1)C(=O)N[C@@H](CC(C)C)C(=O)[C@@]1(C)CO1 [Carfilzomib]
Jeko cells
  sensitization of Jeko cells containing the mutant CARD11 to ibrutinib treatment: sensitized
OCI-Ly3 cells
  sensitization of OCI-Ly3 cells: sensitized

## COCCOc1nc(-c2ccc(Cl)c(Cl)c2)n(-c2ccc(NC(=O)CCl)cc2)n1 [MI-2]
Jeko cells
  sensitization of Jeko cells containing the mutant CARD11 to ibrutinib treatment: sensitized
CARD11 / NF-κB pathway
  effect on NF-κB pathway together with ibrutinib: in some instances synergize with ibrutinib to inhibit the NF-κB pathway
CARD11 / NF-κB pathway; overnight incubation
  effect on CARD11 protein: cause degradation of CARD11
TMD8; ibrutinib 0 nM, IDH1i 10 uM / MALT1i 100 nM alone
  luminescence (CellTiter-Glo): 71955.73
TMD8; ibrutinib 0.0256 nM, IDH1i 10 uM / MALT1i 100 nM / medium alone
  luminescence (CellTiter-Glo): 26784.40
TMD8; ibrutinib 0.128 nM, IDH1i 10 uM / MALT1i 100 nM / medium alone
  luminescence (CellTiter-Glo): 23958.89
TMD8; ibrutinib 0.64 nM, IDH1i 10 uM / MALT1i 100 nM / medium alone
  luminescence (CellTiter-Glo): 25405.91
TMD8; ibrutinib 3.2 nM, IDH1i 10 uM / MALT1i 100 nM / medium alone
  luminescence (CellTiter-Glo): 24014.24
TMD8; ibrutinib 16 nM, IDH1i 10 uM / MALT1i 100 nM / medium alone
  luminescence (CellTiter-Glo): 22888.78
TMD8; ibrutinib 80 nM, IDH1i 10 uM / MALT1i 100 nM / medium alone
  luminescence (CellTiter-Glo): 22045.34
TMD8; ibrutinib 400 nM, IDH1i 10 uM / MALT1i 100 nM / medium alone
  luminescence (CellTiter-Glo): 21591.99
TMD8; ibrutinib 2000 nM, IDH1i 10 uM / MALT1i 100 nM / medium alone
  luminescence (CellTiter-Glo): 21278.34
TMD8; ibrutinib 10000 nM, IDH1i 10 uM / MALT1i 100 nM / medium alone
  luminescence (CellTiter-Glo): 9754.88
U2932; [1]
  luminescence (CellTiter-Glo): 54720.82
U2932; [2]
  luminescence (CellTiter-Glo): 48183.41
U2932; [3]
  luminescence (CellTiter-Glo): 46995.03
U2932; [4]
  luminescence (CellTiter-Glo): 49419.22
U2932; [5]
  luminescence (CellTiter-Glo): 48821.08
U2932; [6]
  luminescence (CellTiter-Glo): 44565.57
U2932; [7]
  luminescence (CellTiter-Glo): 47234.82
U2932; [8]
  luminescence (CellTiter-Glo): 41263.93
U2932; [9]
  luminescence (CellTiter-Glo): 45695.98
U2932; [10]
  luminescence (CellTiter-Glo): 31838.57
OCI-LY-3; [11]
  luminescence (CellTiter-Glo): 23290.74
OCI-LY-3; [12]
  luminescence (CellTiter-Glo): 25371.59
OCI-LY-3; [13]
  luminescence (CellTiter-Glo): 26368.71
OCI-LY-3; [14]
  luminescence (CellTiter-Glo): 24778.56
OCI-LY-3; [15]
  luminescence (CellTiter-Glo): 26610.12
OCI-LY-3; [16]
  luminescence (CellTiter-Glo): 27654.48
OCI-LY-3; [17]
  luminescence (CellTiter-Glo): 27617.74
OCI-LY-3; [18]
  luminescence (CellTiter-Glo): 25227.27
OCI-LY-3; [19]
  luminescence (CellTiter-Glo): 26843.66
OCI-LY-3; [20]
  luminescence (CellTiter-Glo): 23784.06
SU-DHL-2; [1]
  luminescence (CellTiter-Glo): 131429.7
SU-DHL-2; [2]
  luminescence (CellTiter-Glo): 127667.9
SU-DHL-2; [3]
  luminescence (CellTiter-Glo): 145168.7
SU-DHL-2; [4]
  luminescence (CellTiter-Glo): 148058.4
SU-DHL-2; [5]
  luminescence (CellTiter-Glo): 156036.5
SU-DHL-2; [6]
  luminescence (CellTiter-Glo): 153735.3
SU-DHL-2; [7]
  luminescence (CellTiter-Glo): 154662.6
SU-DHL-2; [8]
  luminescence (CellTiter-Glo): 152400.8
SU-DHL-2; [9]
  luminescence (CellTiter-Glo): 151552.3
SU-DHL-2; [10]
  luminescence (CellTiter-Glo): 61725.8
OCI-LY-10; [11]
  luminescence (CellTiter-Glo): 19317.19
OCI-LY-10; [12]
  luminescence (CellTiter-Glo): 21817.96
OCI-LY-10; [13]
  luminescence (CellTiter-Glo): 17802.53
OCI-LY-10; [14]
  luminescence (CellTiter-Glo): 16971.57
OCI-LY-10; [15]
  luminescence (CellTiter-Glo): 13413.69
OCI-LY-10; [16]
  luminescence (CellTiter-Glo): 7749.49
OCI-LY-10; [17]
  luminescence (CellTiter-Glo): 9592.85
OCI-LY-10; [18]
  luminescence (CellTiter-Glo): 9064.30
OCI-LY-10; [19]
  luminescence (CellTiter-Glo): 10110.89
OCI-LY-10; [20]
  luminescence (CellTiter-Glo): 9734.85

## CC(C)C[C@H](NC(=O)[C@H](Cc1ccccc1)NC(=O)c1cnccn1)B(O)O [Velcade]
Jeko cells
  sensitization of Jeko cells containing the mutant CARD11 to ibrutinib treatment: sensitized
